pIC50: −log10 of the molar value.
What was measured:
SIRT1 = biological target: T1, SIRT1 (Homo sapiens, UniProt Q96EB6); assay: NAD-dependent deacetylase activity, cyclex SIR2 assay kit with SIRT1; format: biochemical
T1 construct: purchased MBL, Japan
T1 sequence (Q96EB6 1-747): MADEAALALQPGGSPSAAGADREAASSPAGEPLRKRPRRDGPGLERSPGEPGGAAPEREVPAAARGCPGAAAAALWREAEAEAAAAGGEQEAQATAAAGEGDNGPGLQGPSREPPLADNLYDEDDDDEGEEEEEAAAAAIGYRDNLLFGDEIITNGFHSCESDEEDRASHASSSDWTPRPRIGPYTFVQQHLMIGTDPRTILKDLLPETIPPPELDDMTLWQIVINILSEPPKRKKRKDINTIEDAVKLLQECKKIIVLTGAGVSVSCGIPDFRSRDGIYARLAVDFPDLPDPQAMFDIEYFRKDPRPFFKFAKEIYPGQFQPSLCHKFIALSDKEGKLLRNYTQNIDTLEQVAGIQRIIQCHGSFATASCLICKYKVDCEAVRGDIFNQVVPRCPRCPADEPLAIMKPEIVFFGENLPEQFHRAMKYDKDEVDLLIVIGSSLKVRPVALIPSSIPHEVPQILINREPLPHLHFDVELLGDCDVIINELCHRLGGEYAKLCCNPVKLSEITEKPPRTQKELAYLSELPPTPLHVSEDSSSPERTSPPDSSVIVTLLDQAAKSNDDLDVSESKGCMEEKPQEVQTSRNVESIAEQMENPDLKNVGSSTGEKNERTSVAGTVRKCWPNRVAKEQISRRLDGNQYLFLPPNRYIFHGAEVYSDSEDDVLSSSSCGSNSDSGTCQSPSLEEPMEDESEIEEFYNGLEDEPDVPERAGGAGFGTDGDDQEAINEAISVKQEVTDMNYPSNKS
Experimental: Therefore, complementary experiments were conducted in order to examine whether NAm could interfere with Leishmania deacetylase activity in vitro. To test this possibility, a commercially available “[…] SIR2 assay kit” and SIRT1 as a standard enzyme (MBL, Japan) were used.

intracellular amastigote = assay: Intracellular amastigote proliferation in THP-1 differentiated macrophages, parasitic index; format: cell-based, Leishmania infantum; settings: for pIC50: Leishmania infantum, THP-1, read-out: IC50, intracellular growth of Leishmania infantum
Experimental: Thus, THP-1 differentiated macrophages were infected with stationary phase amastigotes at a host cell-parasite ratio of 5:1. After 4 hours, non adherent parasites were removed and nicotinamide was added to the medium at the appropriate concentration. After 3 days of incubation time, cells were fixed with methanol and stained with giemsa. Parasitic index PI (mean percentage of infected macrophages X number of amastigotes per macrophage) was determined. […] At this concentration a reduction of almost 70% of PI was observed.

Leishmania parasites = settings: compared with NAm
[1] = tested on: L. infantum promastigotes; assay: Growth of promastigotes in axenic culture, viable parasites by FACs analysis; format: cell-based
Experimental: (§1) The growth of Leishmania amastigotes and promastigotes was followed in axenic culture conditions in the presence or absence of NAm.
(§2) A cloned line of L. infantum (MHOM/MA/67/ITMAP-263) was used in all experiments. Each subculture was initiated at 5×10^5 parasites/ml of medium. Axenically grown amastigote forms of L. infantum were maintained at 37° C. with 5% CO2 by weekly subpassages in a cell-free medium called MAA/20 (medium for axenically grown amastigotes) in 25-ml flasks, as previously described (10). Promastigote forms were maintained at 26° C. by weekly subpassage in SDM 79 medium supplemented with 10% foetal calf serum (FCS) and 100 units/ml penicillin and 100 μg/ml streptomycin. Nicotinamide (SIGMA, St Louis) was added at the appropriate concentration and the mean number of viable parasites determined using FACs analysis, as previously described (11).

[2] = tested on: L. amazonsensis amastigotes; assay: Growth inhibition of L. amazonsensis amastigotes; format: cell-based
[3] = tested on: L. infantum axenic amastigotes; assay: Growth of axenically grown amastigotes, viable parasites by FACs analysis; format: cell-based
Experimental: as §1, §2

LmSIR2 = biological target: T2, LmSIR2 (Leishmania major, UniProt Q25337); assay: NAD-dependent deacetylase activity in Leishmania extracts (pTEX-LmSIR2); format: biochemical; settings: 5 mM NAm, 200 μM NAD
T2 construct: expressed in transfected cells; host or cells: Leishmania infantum (MHOM/MA/67/ITMAP-263) carrying pTEX-LmSIR2; NP40 lysate
T2 sequence (Q25337 whole entry): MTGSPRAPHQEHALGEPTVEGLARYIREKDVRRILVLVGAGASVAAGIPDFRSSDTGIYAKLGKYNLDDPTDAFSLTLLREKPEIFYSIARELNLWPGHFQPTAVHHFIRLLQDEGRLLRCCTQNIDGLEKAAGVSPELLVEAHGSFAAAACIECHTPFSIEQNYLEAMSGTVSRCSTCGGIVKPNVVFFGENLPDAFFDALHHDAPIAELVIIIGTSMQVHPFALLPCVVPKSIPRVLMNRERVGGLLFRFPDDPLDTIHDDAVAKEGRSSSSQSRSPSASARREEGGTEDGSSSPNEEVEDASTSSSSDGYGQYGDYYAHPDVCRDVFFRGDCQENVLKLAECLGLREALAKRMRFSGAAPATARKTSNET
Experimental: Having established a standard inhibitory assay, the effect of NAm was then examined on the NAD-dependent deacetylase activity contained in Leishmania extracts from mutant parasites carrying extra copies of LmSIR2 gene (pTEX-LmSIR2) or empty plasmid DNA (pTEX) (11).
Briefly, 2 10^5 parasites were collected and washed two times with PBS 0.01M pH 7.2 and incubated in a lysis solution (100 mM Tris-HCl, 150 mM NaCl, 1 mM EDTA, 1% NP40, 5 μM Trichostatin A, pH 8.8), cells were then centrifuged for 20 min at 10 000 rpm at 4° C. Deacetylase activity in the presence or absence of 200 μM NAD was measured. Results are expressed as relative F355/F460 counts=F355/F460 counts in the presence of NAD—F355/F460 counts in the absence of NAD. This allowed to discriminate between fluorescence due to the action of LmSIR2 to fluorescence due to the presence of compounds which could interfere with the test.

[4] = patient treated with accelerated radiotherapy for head and Neck cancer; cited from earlier work
[5] = tested on: L. infantum amastigotes which overexpress LmSIR2; assay: NAm-induced death of amastigotes overexpressing LmSIR2; format: cell-based; settings: FIGS. 3A and 3B, growth inhibition and YOPRO-1 positive cells
Experimental: To further examine the possible correlation between the level of SIR2 expression and the sensitivity/resistance to NAm-induced Leishmania amastigotes death, NAm was added to cultures of mutant L. infantum amastigotes which overexpress LmSIR2 or carrying the empty pTEX plasmid as controls.

THP-1 monocytes = assay: Growth and viability of THP-1 monocytes; format: cell-based; settings: 3 days
Experimental: In a first series of experiments, THP-1 monocytes were incubated during 3 days with various concentrations of NAm and the growth and viability of cells were recorded. Up to 10 mM of NAm, no effect on cell growth and viability was observed. In contrast, 20 mM NAm inhibited the proliferation of THP-1 monocyte by about 45% in agreement with the values recorded for other cell types: SupT1 and PBLs cells (6).

axenic amastigote = assay: YOPRO-1 positive (apoptotic) axenic amastigotes; format: cell-based, L. infantum
Experimental: After 24, 48 and 72 hours of incubation aliquots (10^6 parasites) were collected, washed and incubated for 10 min with 10 μM of YO[…], an apoptotic cell marker (Molecular probes). The mean percentage of YO[…] positive cells was determined as previously described (9).

| Structure (SMILES) | effect on enzymatic (deacetylase) activity of SIRT1 (SIRT1; 5 mM) | pIC50 (intracellular amastigote) | growth inhibitory activity towards Leishmania parasites (Leishmania parasites) | growth of promastigotes ([1]; 20 mM NAm) | proliferation of promastigotes ([1]; FIG. 1A, 10 mM or 20 mM NAm) | growth inhibitory activity on L. amazonsensis amastigotes [2] | capacity of axenic amastigotes to proliferate ([3]; 20 mM NAm) | proliferation of amastigotes ([3]; FIG. 1B, 10 mM or 20 mM NAm) | effect on enzymatic (deacetylase) activity of SIRT1 (SIRT1; 20 mM) | inhibition of intracellular amastigote proliferation (intracellular amastigote; 2.5 mM NAm, vs control non treated cultures, p<0.05) | reduction of parasitic index (PI) (intracellular amastigote; 10 mM NAm, 3 days, THP-1 differentiated macrophages (maximal activity)) | NAD dependent deacetylase activity in parasites overexpressing LmSIR2 (LmSIR2) | plasmatic concentration achievable [4] | resistance to NAm-induced death from extra copies of LmSIR2 [5] | inhibition at 20000 µM (THP-1 monocytes; Homo sapiens, THP-1, 72 h, 20 mM NAm, read-out: inhibition of proliferation of THP-1 monocyte) | effect on cell growth and viability of THP-1 monocytes (THP-1 monocytes; up to 10 mM NAm) | leishmanicidal effect, YOPRO-1 positive cells (axenic amastigote; 100 mM NAm, after 3 days of culture (FIG. 1C)) | leishmanicidal activity, occurrence of YOPRO-1 positive cells (axenic amastigote; concentrations higher than 25 mM, 24, 48 and 72 hours) |
| --- | --- | --- | --- | --- | --- | --- | --- | --- | --- | --- | --- | --- | --- | --- | --- | --- | --- | --- |
| O=C(O)c1cccnc1 [NicotAc, nicotinic acid] | no significant effect | > 2.60 | exerted a growth inhibitory activity towards Leishmania parasites, although at higher concentrations | – | – | – | – | – | – | – | – | – | – | – | – | – | – | – |
| NC(=O)c1cccnc1 [NAm, nicotinamide] | almost completely abrogated | > 2.60 | – | a delay in the growth | strongly inhibited | sensitive | virtually completely abrogated | strongly inhibited | almost completely abrogated | significantly inhibit | ~70% | significantly inhibited | 0.7 to 2.3 mM | did not confer significant resistance | ~45% | no effect | Maximal effect | strong dose-dependent leishmanicidal activity |
